Laboratory results from article PMC4848905, “Fragment Screening of Human Aquaporin 1” (International Journal of Molecular Sciences, 2016).

T1: hAQP1 (Homo sapiens, UniProt P29972)
T1 construct: made in house; host or cells: Spodoptera frugiperda (Sf9) insect cells, baculovirus vector pFB-LIC-Bse
T1 sequence (P29972 1-269): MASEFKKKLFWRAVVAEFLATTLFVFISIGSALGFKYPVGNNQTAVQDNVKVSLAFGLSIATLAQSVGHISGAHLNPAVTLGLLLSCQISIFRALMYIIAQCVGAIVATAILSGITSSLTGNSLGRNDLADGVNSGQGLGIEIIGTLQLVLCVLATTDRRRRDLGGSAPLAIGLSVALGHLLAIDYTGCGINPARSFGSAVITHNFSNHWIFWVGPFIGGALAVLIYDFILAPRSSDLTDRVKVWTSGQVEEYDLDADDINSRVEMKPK

B1: human aquaporin 1 (6His-TEV-hAQP1) (natural protein, UniProt P29972 1-269, looked up)
chain: T1 sequence (P29972 1-269)
notes: human aquaporin 1, full-length cDNA cloned in pFB-LIC-Bse downstream of an N-terminal 6His and TEV protease cleavage site; No TEV cleavage is described; An octamer band is also assigned in BN-PAGE; also called recombinant hAQP1; source: Sf9 (Spodoptera frugiperda) insect cells, purified (Ni-NTA, gel filtration) in n-octyl-β-D-glucopyranoside

Key:
[1] = target: T1, hAQP1; set-up: method as in PMID 26028295; details: 30 µM; cited from earlier work
[2] = tested on: human red blood cells; set-up: method as in PMID 26028295; details: cited from earlier work
[3] = target: the molecule itself; test: native gel or EMSA; blue-native PAGE (4%-16% Bis-Tris gel, 4 °C) of purified protein in sample buffer with 100 mM OG, 750 mM aminocaproic acid, 50 mM Bis-Tris HCl pH 7.0, 0.5 mM EDTA
[4] = target: the molecule itself; test: SEC; gel filtration on HiLoad 16/600 Superdex 200 prep grade at 4 °C; 20 mM Tris-HCl pH 8, 300 mM NaCl, 1% OG; major peak at 70 mL

Molecule	stabilization of hAQP1 [1]	overall amplitude of the traces [2]	rate constant in the RBC assays [2]	stoichiometry N [3]	stoichiometry N [4]
O=[N+]([O-])c1ccc2c(c1)/C(=N/N=C1c3ccccc3Cc3ccccc31)c1cc([N+](=O)[O-])cc([N+](=O)[O-])c1-2 [NSC658139]	≤ 13 °C	strong reduction in overall amplitude	did not reduce the rate constant	–	–
B1	–	–	–	8	4
